In patent US8481740B2, “Imidazo[1,2 a] pyridine-6-carboxamide derivatives, their use for the treatment of colon cancer and their method of manufacture” (University of the Witwatersrand, Johannesburg, priority 2009, dated 2013):
Read-outs that look alike come from different tables or passages of the source.

Experiments:
HT-29 cell line = test: MTT cell viability assay, HT-29; type: cell-based, human; settings: read-out: IC50 (molar concentration that inhibited growth by 50%), 24 hours, 5 μM to 100 μM
Experimental: (§1) The colon cancer cells were initially exposed to the different imidazo[1,2-a]pyridines compounds at 100 μM (final concentration in the well) at 37° C. for 24 hours using an MTT assay for cell viability quantification.
(§2) The HT-29 and Caco-2 cells were exposed to the novel imidazo[1,2-a]pyridine class of compounds according to the invention in concentrations ranging from 5 μM to 100 μM for 24 hours.
The study made use of two colonic carcinoma cell lines, namely the HT-29 and Caco-2 cell lines. The HT-29 and Caco-2 cell lines were obtained from Highveld Biological, South Africa. Both cell lines were cultured in Dulbecco's Modified Eagles Medium (DMEM) (Highveld Biological, South Africa) and supplemented with 5% heat-inactivated heat-inactivated foetal bovine serum (FBS). 1 ml 10 kU penicillin G/10 mg streptomycin sulphate (pen/strep) (Highveld Biological, South Africa) and 0.4% 100 mM sodium pyruvate per 500 ml DMEM were added after filter sterilisation.
The two colon cancer cells were counted and diluted into fresh media at concentrations of 30 000 cells/well and an aliquot of 180 μl was seeded to each well in a 96-well plate. The plates were then placed in an incubator (37° C., 5% CO2, volume fraction) and the cells were allowed to divide for a period of 24 hours.
The cells were exposed to the different classes of synthetic compounds at 100 μM (final concentration in the well) at 37° C. for 24 hours using an MTT assay for cell viability quantification. After the 24 hour incubation, the plates were removed from the incubator, and an aliquot of 50 μl 0.5% MTT (USB, USA) in 1 mM PBS (pH 7.4) was layered on the media. The plates were incubated for 2 hours at 37° C. The plates were than centrifuged at 3000 rpm (Afrox Sorvall T 6000D) for 5 minutes. Following centrifugation, the medium was very carefully aspirated. Formazan crystals were dissolved in 200 μl DMSO. The absorbance was then read at 540 nm using the Absorbance Labsystems Multiskan MS, version 2.4. The controls used in the assay consisted of i) medium alone without cells, ii) medium with or without the tested compounds and iii) medium with Camptothecin.
Compounds showing cytotoxicity at a concentration of 100 μM were further diluted to obtain an IC50 concentration. All tests were performed in triplicate.

Caco-2 cells = test: JC-1 mitochondrial membrane potential flow cytometry, Caco-2; type: cell-based, human; settings: 100 μM, 24 hours
Experimental: (§3) The dysfunction of the mitochondria is believed to be an important step in the commitment of the cell to apoptosis. To assess whether disruption of the mitochondrial transmembrane potential (Δψ) was involved in the apoptotic action of the novel imidazo[1,2-a]pyridines, the HT-29 and Caco-2 cells were treated for 24 hours with 100 μM of the novel compounds and then analysed by flow cytometry by using the cationic fluorescent dye 5,5′,6,6′-tetrachloro-1,1′,3,3′-tetraethylbenzimidazolcarbocyanine iodide (JC-1) to measure mitochondrial membrane depolarization in intact viable cells.
(§4) When energy is released during the oxidation reactions in the mitochondrial respiratory chain, it is stored as a negative electrochemical gradient across the mitochondrial membrane. Under these situations, the mitochondrial membrane potential (Δψ) is polarized. During the early stages of apoptosis, a collapse of the Δψ which results in a depolarized Δψ, is sometimes noticed. […] The changes in Δψ have also been noticed during necrosis (depolarisation) and cell cycle arrest (hyperpolarisation). Understanding the Δψ and how it alters during apoptosis and necrosis, may assist in determining the function of the mitochondria in these and other cellular processes. […]

white blood cells = test: MTT cell viability assay, white blood cells; type: cell-based
Experimental: Cell viability was determined by the MTT assay after the white blood cells were exposed to the novel compounds for 24 hours at an initial concentration of 100 μM. Camptothecin was used as a positive control for cytotoxicity.

caspase 3 in HT-29 cells = test: Caspase 3 colorimetric assay, HT-29 lysates; type: cell-based, human; settings: for time of maximal caspase 3 expression / time at which high caspase 3 levels were observed: time of exposure; for initiation of apoptosis compared with camptothecin: from caspase 3 levels
Experimental: (§5) As it is well known that caspases play a vital role in the execution of apoptosis, the level of caspase 3 and caspase 8 enzymatic activity in the cell lysates were determined using a caspase 3 and caspase 8 colorimetric assay kit (FIGS. 3A and B). Maximal caspase 8 expression in HT-29 cells was observed within 2 hours of exposure to all the CDK compounds. […] Maximal caspase 3 expression in the HT-29 cells was observed after 8 hours of exposure to 7 and 13, and 4 hours of exposure to 12. Maximal caspase 8 expression in the HT-29 cells was observed within 2 hours of exposure to 14, 4 and 6, and within 4 hours after exposure to 3. Maximal caspase 3 expression in the HT-29 cells was observed after 2 hours of exposure to 4 and 6, and after 4 hours of exposure to 14 and 3.
(§6) The activation of caspases initiates apoptosis in mammalian cells. Caspase 3 and Caspase 8 were detected using the CPP32 and FLICE colorimetric Assay kits, respectively. The following method (obtained from Biovision research products) was performed.
(§7) The treated HT-29 and Caco-2 cells were harvested and resuspended in 50 μl of chilled cell lysis buffer and incubated on ice for 10 minutes. The cells were centrifuged for 1 minute (10000 g) and the supernatant (cytosolic extract) was transferred to a fresh tube and placed on ice. The protein concentration was assayed using the Biorad assay method. 100-200 μg protein to 50 μl cell lysis buffer was diluted for each assay. 50 μl of 2× Reaction buffer (containing 10 mM DTT) was added to each sample. 5 μl of 4 mM IETD-pNA substrate for Caspase 8 and 5 μl of 4 mM DEVD-pNA substrate for Caspase 3 was added to each sample and incubated at 37° C. for 1-2 hours. The samples were read at 405 nm in the microtiter plate reader. Time dependent studies were performed for protease activity by attaining results 2, 4, 6, 12, and 24 hours after treatment with the compounds.

caspase 8 in HT-29 cells = test: Caspase 8 colorimetric assay, HT-29 lysates; type: cell-based, human; settings: time of exposure
Experimental: as §5, §6
The treated HT-29 and Caco-2 cells were harvested and resuspended in 50 μl of chilled cell lysis buffer and incubated on ice for 10 minutes. The cells were centrifuged for 1 minute (10000 g) and the supernatant (cytosolic extract) was transferred to a fresh tube and placed on ice. […] The samples were read at 405 nm in the microtiter plate reader. […]

[1] = test system: caspase 3 in Caco-2 cells; test: Caspase 3 colorimetric assay, Caco-2 lysates; type: cell-based, human; settings: time of exposure
Experimental: as §5, §6, §7

Caco-2 cell line = test: MTT cell viability assay, Caco-2; type: cell-based; settings: Homo sapiens, read-out: IC50 (molar concentration that inhibited growth by 50%), 24 hours, 5 μM to 100 μM
Experimental: as §1, §2
The study made use of two colonic carcinoma cell lines, namely the HT-29 and Caco-2 cell lines. The HT-29 and Caco-2 cell lines were obtained from Highveld Biological, South Africa. Both cell lines were cultured in Dulbecco's Modified Eagles Medium (DMEM) (Highveld Biological, South Africa) and supplemented with 5% heat-inactivated heat-inactivated foetal bovine serum (FBS). […]
The two colon cancer cells were counted and diluted into fresh media at concentrations of 30 000 cells/well and an aliquot of 180 μl was seeded to each well in a 96-well plate. […]
The cells were exposed to the different classes of synthetic compounds at 100 μM (final concentration in the well) at 37° C. for 24 hours using an MTT assay for cell viability quantification. […] The absorbance was then read at 540 nm using the Absorbance Labsystems Multiskan MS, version 2.4. […]

HT-29 cells = settings: 100 μM, 24 hours
Experimental: as §3, §4

Q: With COc1ccc(-c2nc3ccc(Br)cn3c2Nc2c(C)cccc2C)c(OC)c1 [Compound 12] as the molecule, how does the IC50 (HT-29 cell line; Homo sapiens) read?
A: 22 ± 1.17 µM

Q: And the “cells undergoing apoptosis (JC-1), average” value (Caco-2 cells)?
A: 81.91%

Q: And the “White Blood Cell Viability %” value (white blood cells; 24 h, 100 µM)?
A: 96.311 ± 5.023%

Q: And the “time of maximal caspase 3 expression” value (caspase 3 in HT-29 cells)?
A: 4 h

Q: With COc1ccc(-c2nc3ccc(C)cn3c2Nc2c(C)cccc2C)cc1OC [Compound 3] as the molecule, how does the “time of maximal (peak) caspase 8 expression” value (caspase 8 in HT-29 cells) read?
A: ≤ 4 h

Q: And the “time at which high caspase 3 levels were observed” value [1]?
A: 4 h

Q: And the “White Blood Cell Viability %” value (white blood cells; 100 µM)?
A: 76.176 ± 0.567%

Q: What about the “time at which high caspase 3 levels were observed” value (caspase 3 in HT-29 cells) of the same molecule?
A: 4 h

Q: And the “time of maximal caspase 3 expression” value (caspase 3 in HT-29 cells)?
A: 4 h

Q: For CC[C@@]1(O)C(=O)OCc2c1cc1n(c2=O)Cc2cc3ccccc3nc2-1 [camptothecin, reference compound], which IC50 (HT-29 cell line; Homo sapiens) is on record?
A: 9.99 ± 1.41 µM

Q: What about the IC50 (Caco-2 cell line) of the same molecule?
A: 9.55 ± 2.21 µM

Q: What about the “White Blood Cell Viability %” value (white blood cells; 100 μM, 24 hours, MTT) of the same molecule?
A: 33.782 ± 2.031%

Q: For NC(=O)c1ccc2nc(-c3ccc(OCc4ccccc4)cc3OCc3ccccc3)c(NC3CCCCC3)n2c1 [Compound 7], which IC50 (HT-29 cell line) is on record?
A: 9.2 ± 0.83 µM

Q: What about the “cells undergoing apoptosis (JC-1)” value (HT-29 cells) of the same molecule?
A: 79.62%

Q: And the “healthy cells remaining after treatment (JC-1)” value (HT-29 cells)?
A: 20.33%

Q: And the “White Blood Cell Viability %” value (white blood cells; 100 µM)?
A: 93.834 ± 0.271%

Q: And the “time of maximal caspase 3 expression” value (caspase 3 in HT-29 cells)?
A: 8 h

Q: With COc1ccc(-c2nc3ccc(Br)cn3c2Nc2c(C)cccc2C)cc1OC [Compound 6] as the molecule, how does the “time at which high caspase 3 levels were observed” value [1] read?
A: 2 h

Q: What about the “White Blood Cell Viability %” value (white blood cells; 24 h, 100 µM) of the same molecule?
A: 83.762 ± 1.389%

Q: And the “initiation of apoptosis compared with camptothecin” value (caspase 3 in HT-29 cells)?
A: earlier stage than camptothecin

Q: What about the “time at which high caspase 3 levels were observed” value (caspase 3 in HT-29 cells) of the same molecule?
A: 2 h

Q: And the “time of maximal caspase 3 expression” value (caspase 3 in HT-29 cells)?
A: 2 h

Q: Which “time at which high caspase 3 levels were observed” value [1] does the source give for COc1ccc(-c2nc3ccc(-c4ccccc4)cn3c2Nc2c(C)cccc2C)cc1OC [Compound 14] here?
A: 2 h

Q: What about the “White Blood Cell Viability %” value (white blood cells; 24 h, 100 µM) of the same molecule?
A: 77.345 ± 1.005%

Q: And the “initiation of apoptosis compared with camptothecin” value (caspase 3 in HT-29 cells)?
A: earlier stage than camptothecin

Q: And the “time at which high caspase 3 levels were observed” value (caspase 3 in HT-29 cells)?
A: 2 h

Q: What about the “time of maximal caspase 3 expression” value (caspase 3 in HT-29 cells) of the same molecule?
A: 4 h

Q: Which results are given for COc1ccc(-c2nc3ccc(C)cn3c2Nc2c(C)cccc2C)c(OC)c1 [Compound 13]?
A: IC50 (HT-29 cell line): 10 ± 2.69 µM; White Blood Cell Viability % (white blood cells; 100 µM): 97.479 ± 1.178%; time of maximal caspase 3 expression (caspase 3 in HT-29 cells): 8 h

Q: For COc1ccc(OC)c(-c2nc3ccc(Br)cn3c2NCc2ccccc2)c1 [Compound 4], which “time at which high caspase 3 levels were observed” value [1] is on record?
A: 2 h

Q: And the “White Blood Cell Viability %” value (white blood cells; 100 µM)?
A: 88.943 ± 1.996%

Q: What about the “initiation of apoptosis compared with camptothecin” value (caspase 3 in HT-29 cells) of the same molecule?
A: earlier stage than camptothecin

Q: What about the “time at which high caspase 3 levels were observed” value (caspase 3 in HT-29 cells) of the same molecule?
A: 2 h

Q: And the “time of maximal caspase 3 expression” value (caspase 3 in HT-29 cells)?
A: 2 h
